Assay results from the supplement of paper PMC6965134.
± gives the standard deviation of the averaged measurements.

Test: TIMS collisional cross section (CCS, N2) of the lipid ion; higher = larger ion cross section
Details: ionization mode: positive, one isomer drawn
Protocol: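 Lipid extracts of human plasma (NIST SRM 1950), mouse liver and HeLa cells were separated by nanoflow C18 LC (30 min gradient, 60 °C) and analysed by TIMS-PASEF on a timsTOF Pro in positive ion mode. Ion mobility was calibrated with the Agilent tuning mix and converted to collisional cross sections (Mason–Schamp) in N2 drift gas. Lipids were identified by MS/MS (SimLipid) and manual curation. SMILES are LIPID MAPS representative structures for the annotated lipid.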

Row | SMILES | TIMS collisional cross section (sample type: plasma) [Å²] | TIMS collisional cross section (sample type: Liver) [Å²] | TIMS collisional cross section (sample type: HeLa) [Å²]
1 | CCCCC/C=C\C/C=C\C/C=C\C/C=C\CCCC(=O)O[C@H](COCCCCCCCC/C=C\CCCCCCCC)COP(=O)([O-])OCC[N+](C)(C)C [PC O- 18:1@_20:4] (ion (formula + adduct): [C46H84NO7P+H] 1+) | 294 | – | –
2 | CCCC/C=C\CCCCCCCC(=O)OC[C@H](COC(=O)CCCCCCC/C=C\CCCCCCC)OC(=O)CCCCCCC/C=C\CCCCCC [TG 14:1_16:1_17:1] (ion (formula + adduct): [C50H90O6+NH4] 1+) | – | 305.4 | –
3 | CC/C=C\C/C=C\C/C=C\C/C=C\C/C=C\C/C=C\CCC(=O)O[C@@H](CO)COC(=O)CCCCCCC/C=C\CCCCCCCC [DG 18:1_22:6_0:0] (ion (formula + adduct): [C43H70O5+NH4] 1+) | – | 269.9 | 270
4 | CCCCC/C=C\C/C=C\C/C=C\C/C=C\CCCCCC(=O)O[C@H](CO)COP(=O)(O)OCCN [LPE 22:4] (ion (formula + adduct): [C27H48NO7P+H] 1+) | – | 223.9 | –
5 | CCCCCCCCCCCCC/C=C/[C@@H](O)[C@H](CO[C@@H]1O[C@H](CO)[C@@H](O)C(O)C1O)NC(=O)CCCCCCCCCCCCCCCCCCC (stereo partly specified) [GlcCer d18:1_20:0@] (ion (formula + adduct): [C44H85NO8+H] 1+) | – | 292.9 | –
6 | CCCCCC/C=C/CCCCCCCCCC(=O)OC[C@@H](COC(=O)CCCCCCCCCCCCCCC)OC(=O)CCCCCCCCCCCCCCC [TG 16:0_16:0_18:1] (ion (formula + adduct): [C53H100O6+NH4] 1+) | 318.4 | – | 318.75 ± 0.21
7 | CCCCCCCC/C=C\CCCCCCCC(=O)OC[C@@H](COC(=O)CCCCCCCCCCC)OC(=O)CCCCCCCCCCCCC [TG 12:0_14:0_18:1] (ion (formula + adduct): [C47H88O6+NH4] 1+) | 298.9 | – | –
8 | CCCCC/C=C\C/C=C\C/C=C\CCCCCCC(=O)OC[C@@H](COC(=O)CCCCCCC/C=C\CCCCCCCC)OC(=O)CCCCCCCCC/C=C\CCCCCCCC [TG 18:1_20:1_20:3] (ion (formula + adduct): [C61H108O6+NH4] 1+) | – | – | 336.4
9 | CCCCCC/C=C\CCCCCCCC(=O)OC[C@H](COC(=O)CCCCCCCCCCCCCCCCC)OC(=O)CCCCCCC/C=C\CCCCCCC [TG 16:1_17:1_18:0] (ion (formula + adduct): [C54H100O6+NH4] 1+) | – | – | 318.7
10 | CCCCC/C=C\C/C=C\C/C=C\CCCCCCC(=O)O[C@@H](CO)COC(=O)CCCCCCCCCCCCCCCCC [DG 18:0_20:3_0:0] (ion (formula + adduct): [C41H74O5+NH4] 1+) | – | 271.8 | –
11 | CC/C=C\C/C=C\C/C=C\C/C=C\C/C=C\CCCC(=O)O[C@H](COC(=O)CCCC/C=C\C/C=C\C/C=C\CCCCC)COP(=O)([O-])OCC[N+](C)(C)C [PC 18:3_20:5] (ion (formula + adduct): [C46H76NO8P+H] 1+) | 288.2 | – | –
12 | CCCC/C=C\CCCCCCCCCCCC(=O)O[C@H](COC(=O)CCCCCCCCCCCCCCCCCCCCC)COP(=O)(O)OCCN [PE 22:0_18:1@] (ion (formula + adduct): [C45H88NO8P+H] 1+) | – | – | 294.9
13 | CCCCC/C=C\C/C=C\C/C=C\C/C=C\CCCC(=O)O[C@H](COC(=O)CCCCCCCCCCCCCCCC)COP(=O)([O-])OCC[N+](C)(C)C [PC 17:0_20:4] (ion (formula + adduct): [C45H82NO8P+H] 1+) | 292.9 | – | –
14 | CCCCCCCCCCCCC/C=C/[C@@H](O)[C@H](COP(=O)([O-])OCC[N+](C)(C)C)NC(=O)CCCCCCCCCCCCCCCCCCC [SM d18:1_20:0@] (ion (formula + adduct): [C43H87N2O6P+H] 1+) | 297 | – | –
15 | CCCCC/C=C\C/C=C\CCCCCCCC(=O)O[C@@H](CO)COC(=O)CCCCCCCCCCCCCCCC [DG 17:0_18:2_0:0] (ion (formula + adduct): [C38H70O5+NH4] 1+) | – | 262.8 | –
16 | CCCCCCCCCCCCCCC(=O)O[C@H](COC(=O)CCCCCCCCCCC)COP(=O)([O-])OCC[N+](C)(C)C [PC 12:0_15:0@] (ion (formula + adduct): [C35H70NO8P+H] 1+) | 269.3 | – | –

Row | SMILES | TIMS collisional cross section (sample type: plasma) [Å²] | TIMS collisional cross section (sample type: Liver) [Å²] | TIMS collisional cross section (sample type: HeLa) [Å²]
17 | CC/C=C\C/C=C\C/C=C\C/C=C\C/C=C\CCCC(=O)O[C@H](COC(=O)CCCCCCC/C=C\CCCCCC)COP(=O)([O-])OCC[N+](C)(C)C [PC 16:1_20:5] (ion (formula + adduct): [C44H76NO8P+H] 1+) | – | – | 283.2
18 | CC/C=C\C/C=C\C/C=C\C/C=C\C/C=C\CCCCCC(=O)OC[C@@H](COC(=O)CCCCCCC/C=C\CCCCCCCC)OC(=O)CCC/C=C\C/C=C\C/C=C\C/C=C\CCCCC [TG 18:1_20:4_22:5] (ion (formula + adduct): [C63H102O6+NH4] 1+) | – | – | 333.4
19 | CC/C=C\C/C=C\C/C=C\CCCCCCCC(=O)O[C@@H](CO)COC(=O)CCCCCCCCCCCCCCC [DG 16:0_18:3_0:0] (ion (formula + adduct): [C37H66O5+NH4] 1+) | – | 257.1 | 257.3
20 | CCCCC/C=C\C/C=C\C/C=C\C/C=C\CCCCCC(=O)OC[C@@H](COC(=O)CCCCCCC/C=C\CCCCCCCC)OC(=O)CCCCCCCCC/C=C\CCCCCCCC [TG 18:1_20:1_22:4] (ion (formula + adduct): [C63H110O6+NH4] 1+) | – | – | 338.9
21 | CCCCC/C=C\C/C=C\C/C=C\CCCCCCCCC(=O)OC[C@@H](COC(=O)CCCCCCCCCCCCCCCCC)OC(=O)CCCCCCC/C=C\CCCCCCCC [TG 18:0_18:1_22:3] (ion (formula + adduct): [C61H110O6+NH4] 1+) | – | – | 336.5
22 | CCCCC/C=C\C/C=C\C/C=C\C/C=C\CCCC(=O)OC[C@@H](O)COP(=O)(O)OC[C@H](N)C(=O)O [LPS 20:4] (ion (formula + adduct): [C26H44NO9P+H] 1+) | – | 221.9 | –
23 | CCCCCCCC/C=C\CCCCCCCCCCCC(=O)OC[C@@H](COC(=O)CCCCCCC/C=C\CCCCCCCC)OC(=O)CCCCCCCCCCC/C=C\CCCCCCCC [TG 18:1_22:1_22:1] (ion (formula + adduct): [C65H120O6+NH4] 1+) | – | – | 349.2
24 | CC/C=C\C/C=C\C/C=C\CCCCCCCC(=O)OC[C@@H](COC(=O)CCCCCCC/C=C\C/C=C\CCCCC)OC(=O)CCCCCCC/C=C\C/C=C\CCCCC [TG 18:2_18:2_18:3] (ion (formula + adduct): [C57H96O6+NH4] 1+) | 317.6 | – | –
25 | CCCCC/C=C\C/C=C\C/C=C\C/C=C\CCCC(=O)O[C@H](COC(=O)CCCCCCC/C=C\C/C=C\CCCCC)COP(=O)([O-])OCC[N+](C)(C)C [PC 18:2@_20:4] (ion (formula + adduct): [C46H80NO8P+H] 1+) | – | 290.9 | –
26 | CC/C=C\C/C=C\C/C=C\C/C=C\C/C=C\CCCCCC(=O)OC[C@@H](COC(=O)CCCCCCCCCCCCCCC)OC(=O)CCCCCCC/C=C\CCCCCC [TG 16:0_16:1_22:5] (ion (formula + adduct): [C57H98O6+NH4] 1+) | – | – | 321.9
27 | CCCCCCCCCCCCC/C=C/C=C/C(=O)OC[C@@H](O)COP(=O)([O-])OCC[N+](C)(C)C (ion (formula + adduct): [C26H50NO7P+H] 1+) | 228.1 ± 0.42 | – | 228.2
28 | CCCCCCCCCCCCC/C=C/C=C/C(=O)OC[C@H](COP(=O)([O-])OCC[N+](C)(C)C)OC(=O)/C=C/C=C/CCCCCCCCCCCCC [PC 18:2_18:2] (ion (formula + adduct): [C44H80NO8P+H] 1+) | 286.9 | – | 287.6
29 | CC/C=C\C/C=C\C/C=C\C/C=C\C/C=C\CCCC(=O)OC[C@H](COP(=O)(O)OCCN)OC(=O)CCCCCCCCCCCCCCCCC [PE 20:5_18:0] (ion (formula + adduct): [C43H76NO8P+H] 1+) | – | 281.4 | –
30 | CCCCCCCCCCCCCCCCCC(=O)OCC(CO)OC(=O)CCCCCCCCCCCCCCCCC (stereo unspecified) [DG 18:0_18:0_0:0] (ion (formula + adduct): [C39H76O5+NH4] 1+) | 273.4 | – | 272.2
31 | CCCCCCCCCCCCCC(=O)OC[C@@H](COC(=O)CCCCCCCCCCC)OC(=O)CCCCCCCCCCC [TG 12:0_12:0_14:0] (ion (formula + adduct): [C41H78O6+NH4] 1+) | 282.9 | 281.3 ± 0.57 | 283
32 | CCCCCCCC/C=C\CCCCCCCCCC(=O)OC[C@@H](COC(=O)CCCCCCC/C=C\CCCCCCCC)OC(=O)CCCCCCCCCCCCCCCCCC [TG 18:1_19:0_20:1] (ion (formula + adduct): [C60H112O6+NH4] 1+) | – | 337 | 336.7
